Measurements taken from ChEMBL document CHEMBL1833788, “Selective water-soluble gelatinase inhibitor prodrugs” (J Med Chem, 2011).

Key:
[1] = Solubility of the compound in aqueous solution at 10 mg/ml by UV spectroscopy; format: physicochemical
[2] = system: Plasma; assay: Metabolic stability of the compound in human plasma at 10 mM after 2 mins by reversed-phase HPLC/UV analysis; format: ADME, cell-free; conditions: 10000 µM
[3] = Chemical stability of the compound in aqueous solution at 10 mg/ml by HPLC up to 2 hrs; format: physicochemical; conditions: buffer
[4] = Chemical stability of the compound in aqueous solution at 10 mg/ml by HPLC after 1 month; format: physicochemical; conditions: buffer, 730.5 h
[5] = system: Blood; assay: Half life in human blood at 10 mM by reversed-phase HPLC/UV analysis; format: ADME, tissue-based; conditions: 10000 µM
[6] = system: Plasma; assay: Half life in human plasma at 10 mM by reversed-phase HPLC/UV analysis; format: ADME, cell-free; conditions: 10000 µM
[7] = system: Salmonella typhimurium; assay: Induction of mutagenicity in Salmonella Typhimurium TA7001 to TA7006 at 1 mg/mL after 48 hrs by Ames assay in presence of rat liver S9 metabolic activation system; format: toxicity, organism-based; conditions: salmonella enterica subsp. enterica serovar typhimurium, s9, 48 h
[8] = system: Liver microsomes; assay: Prodrug conversion in rat liver microsomes assessed as release of 4-(4-{[(1-oxidothiiran-2-yl)methyl]sulfonyl}phenoxy)aniline after 30 mins by HPLC/MS analysis; format: ADME, Microsome; conditions: 0.5 h
[9] = system: Liver; assay: Half life in mouse liver microsomes at 100 uM by reversed-phase HPLC/UV analysis; format: ADME, Microsome
[10] = system: Liver microsomes; assay: Half life in human liver microsomes at 100 uM by reversed-phase HPLC/UV analysis; format: ADME, Microsome
[11] = system: Salmonella typhimurium; assay: Induction of mutagenicity in Salmonella Typhimurium TA98 at 1 mg/mL after 48 hrs by Ames assay in presence of rat liver S9 metabolic activation system; format: toxicity, organism-based; conditions: salmonella enterica subsp. enterica serovar typhimurium, s9, 48 h
[12] = system: Liver microsomes; assay: Prodrug conversion in rat liver microsomes assessed as release of 2-amino-5-(4-(thiiran-2-ylmethylsulfonyl)phenoxy)phenol after 30 mins by HPLC/MS analysis; format: ADME, Microsome; conditions: 0.5 h
[13] = system: Liver microsomes; assay: Half life in rat liver microsomes at 100 uM by reversed-phase HPLC/UV analysis; format: ADME, Microsome
[14] = system: Salmonella typhimurium; assay: Induction of mutagenicity in Salmonella Typhimurium TA98 at 1 mg/mL after 48 hrs by Ames assay in absence of rat liver S9 metabolic activation system; format: toxicity, organism-based; conditions: salmonella enterica subsp. enterica serovar typhimurium, s9, 48 h
[15] = Apparent intrinsic clearance in human liver microsomes; format: ADME, Microsome
[16] = system: Salmonella typhimurium; assay: Induction of mutagenicity in Salmonella Typhimurium TA7001 to TA7006 at 1 mg/mL after 48 hrs by Ames assay in absence of rat liver S9 metabolic activation system; format: toxicity, organism-based; conditions: salmonella enterica subsp. enterica serovar typhimurium
[17] = system: Mus musculus; assay: AUC (0 to last) in C57B1/6 mouse plasma assessed as N-(4-(4-(thiiran-2-ylmethylsulfonyl)phenoxy)phenyl)acetamide level at […], iv administered as single bolus dose; format: ADME, organism-based; conditions: in vivo
[18] = system: Mus musculus; assay: Prodrug conversion in C57B1/6 mouse assessed as N-(4-(4-(thiiran-2-ylmethylsulfonyl)phenoxy)phenyl)acetamide level in plasma at […], iv administered as single bolus dose after 62 to 66 mins by reversed-phase LC/MS analysis; conditions: in vivo
[19] = system: Mus musculus; assay: AUC (0 to infinity) in C57B1/6 mouse plasma assessed as N-(4-(4-(thiiran-2-ylmethylsulfonyl)phenoxy)phenyl)acetamide level at […], iv administered as single bolus dose; format: ADME, organism-based; conditions: in vivo, BLD = below limit of detection
[20] = system: Mus musculus; assay: Terminal half life in C57B1/6 mouse plasma assessed as parent compound level at […], iv administered as single bolus dose; format: ADME, organism-based; conditions: in vivo
[21] = system: Mus musculus; assay: Prodrug conversion in C57B1/6 mouse assessed as N-(4-(4-(thiiran-2-ylmethylsulfonyl)phenoxy)phenyl)acetamide level in plasma at […], iv administered as single bolus dose after 7 to 8 mins by reversed-phase LC/MS analysis; conditions: in vivo
[22] = system: Mus musculus; assay: Prodrug conversion in C57B1/6 mouse assessed as N-(4-(4-(thiiran-2-ylmethylsulfonyl)phenoxy)phenyl)acetamide level in plasma at […], iv administered as single bolus dose after 120 to 123 mins by reversed-phase LC/MS analysis; conditions: in vivo
[23] = system: Mus musculus; assay: Terminal half life in C57B1/6 mouse plasma assessed as N-(4-(4-(thiiran-2-ylmethylsulfonyl)phenoxy)phenyl)acetamide level at […], iv administered as single bolus dose; format: ADME, organism-based; conditions: in vivo, BLD = below limit of detection
[24] = system: Mus musculus; assay: Volume of distribution in C57B1/6 mouse plasma assessed as parent compound level at […], iv administered as single bolus dose; format: ADME, organism-based; conditions: in vivo
[25] = system: Mus musculus; assay: Clearance in C57B1/6 mouse plasma assessed as parent compound level at […], iv administered as single bolus dose; format: ADME, organism-based; conditions: in vivo
[26] = system: Mus musculus; assay: Prodrug conversion in C57B1/6 mouse assessed as N-(4-(4-(thiiran-2-ylmethylsulfonyl)phenoxy)phenyl)acetamide level in plasma at […], iv administered as single bolus dose after 2 to 3 mins by reversed-phase LC/MS analysis; conditions: in vivo
[27] = system: Mus musculus; assay: Prodrug conversion in C57B1/6 mouse assessed as N-(4-(4-(thiiran-2-ylmethylsulfonyl)phenoxy)phenyl)acetamide level in plasma at […], iv administered as single bolus dose after 30 mins by reversed-phase LC/MS analysis; conditions: in vivo, 0.5 h
[28] = system: Mus musculus; assay: Distribution half life in C57B1/6 mouse plasma assessed as N-(4-(4-(thiiran-2-ylmethylsulfonyl)phenoxy)phenyl)acetamide level at […], iv administered as single bolus dose; format: ADME, organism-based; conditions: in vivo
[29] = system: Mus musculus; assay: Prodrug conversion in C57B1/6 mouse assessed as N-(4-(4-((Thiiran-2-ylmethyl)sulfonyl)phenoxy)phenyl) hydroxylamine level in plasma at […], iv administered as single dose by reversed-phase LC/MS analysis; format: ADME, organism-based; conditions: in vivo
[30] = system: Mus musculus; assay: Prodrug conversion in C57B1/6 mouse assessed as N-(4-(4-((Thiiran-2-ylmethyl)sulfonyl)phenoxy)phenyl) hydroxylamine level in urine at […], iv administered as single dose by reversed-phase LC/MS analysis; format: ADME, organism-based; conditions: in vivo
[31] = system: Mus musculus; assay: AUC (0 to infinity) in C57B1/6 mouse plasma assessed as parent compound level at […], iv administered as single bolus dose; format: ADME, organism-based; conditions: in vivo
[32] = system: Mus musculus; assay: Prodrug conversion in C57B1/6 mouse assessed as N-(4-(4-(thiiran-2-ylmethylsulfonyl)phenoxy)phenyl)acetamide level in plasma at […], iv administered as single bolus dose after 11 to 12 mins by reversed-phase LC/MS analysis; conditions: in vivo
[33] = system: Blood; assay: Prodrug conversion in human blood assessed as release of 4-[4-((Thiiran-2-yl)methylsulphonyl)phenoxy]benzamine at 10 mM after 30 mins by reversed-phase HPLC/UV analysis; format: ADME, tissue-based; conditions: 0.5 h, 10000 µM
[34] = target: Matrix metalloproteinase-9 (Homo sapiens, UniProt P14780)
Sequence of Matrix metalloproteinase-9 (P14780 whole entry): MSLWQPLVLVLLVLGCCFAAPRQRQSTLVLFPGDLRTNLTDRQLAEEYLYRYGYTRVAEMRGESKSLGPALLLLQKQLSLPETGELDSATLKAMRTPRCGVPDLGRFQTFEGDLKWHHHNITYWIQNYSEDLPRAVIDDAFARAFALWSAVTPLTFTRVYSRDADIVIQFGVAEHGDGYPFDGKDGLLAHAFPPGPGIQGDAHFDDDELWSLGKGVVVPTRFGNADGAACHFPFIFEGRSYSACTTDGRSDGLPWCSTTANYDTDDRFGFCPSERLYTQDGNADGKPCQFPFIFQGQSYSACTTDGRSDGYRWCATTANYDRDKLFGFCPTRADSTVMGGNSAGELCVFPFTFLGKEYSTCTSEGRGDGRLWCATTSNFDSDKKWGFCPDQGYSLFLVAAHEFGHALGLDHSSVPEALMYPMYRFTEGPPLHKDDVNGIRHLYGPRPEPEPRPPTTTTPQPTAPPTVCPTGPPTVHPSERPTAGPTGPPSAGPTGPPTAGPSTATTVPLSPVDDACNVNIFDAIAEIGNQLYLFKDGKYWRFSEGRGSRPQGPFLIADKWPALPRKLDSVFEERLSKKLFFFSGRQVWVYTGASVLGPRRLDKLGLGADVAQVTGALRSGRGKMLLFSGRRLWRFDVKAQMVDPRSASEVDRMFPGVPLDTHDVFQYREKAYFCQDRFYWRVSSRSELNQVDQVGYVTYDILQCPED
Description: Inhibition of human recombinant MMP9 catalytic domain assessed as hydrolysis of MOCAcPLGLA2pr(Dnp)AR-NH2 by fluorescence spectrofluorometry

[35] = system: Liver microsomes; assay: Prodrug conversion in rat liver microsomes assessed as release of 4-(4-((S)-2-amino-5-guanidinopentanamido)phenoxy)benzenesulfinic acid after 60 mins by HPLC/MS analysis; format: ADME, Microsome; conditions: 1 h
[36] = species: Rattus norvegicus; assay: Hepatic blood flow in rat; format: ADME, organism-based, Liver
[37] = species: Mus musculus; assay: Hepatic blood flow in mouse; format: ADME, organism-based, Liver
[38] = system: Liver microsomes; assay: Prodrug conversion in rat liver microsomes assessed as release of 4-(4-aminophenoxy)benzenesulfinic acid after 60 mins by HPLC/MS analysis; format: ADME, Microsome; conditions: 1 h
[39] = species: Homo sapiens; assay: Hepatic blood flow in human; format: ADME, organism-based, Liver
[40] = system: Liver microsomes; assay: Prodrug conversion in rat liver microsomes assessed as release of N-(4-(4-(thiiran-2-ylmethylsulfonyl)phenoxy)phenyl)acetamide after 60 mins by HPLC/MS analysis; format: ADME, Microsome; conditions: 1 h
[41] = target: T1, Interstitial collagenase (Homo sapiens) (UniProt P03956); assay: Inhibition of human recombinant MMP1 catalytic domain assessed as hydrolysis of MOCAcPLGLA2pr(Dnp)AR-NH2 at 300 uM by fluorescence spectrofluorometry
T1 sequence (whole entry): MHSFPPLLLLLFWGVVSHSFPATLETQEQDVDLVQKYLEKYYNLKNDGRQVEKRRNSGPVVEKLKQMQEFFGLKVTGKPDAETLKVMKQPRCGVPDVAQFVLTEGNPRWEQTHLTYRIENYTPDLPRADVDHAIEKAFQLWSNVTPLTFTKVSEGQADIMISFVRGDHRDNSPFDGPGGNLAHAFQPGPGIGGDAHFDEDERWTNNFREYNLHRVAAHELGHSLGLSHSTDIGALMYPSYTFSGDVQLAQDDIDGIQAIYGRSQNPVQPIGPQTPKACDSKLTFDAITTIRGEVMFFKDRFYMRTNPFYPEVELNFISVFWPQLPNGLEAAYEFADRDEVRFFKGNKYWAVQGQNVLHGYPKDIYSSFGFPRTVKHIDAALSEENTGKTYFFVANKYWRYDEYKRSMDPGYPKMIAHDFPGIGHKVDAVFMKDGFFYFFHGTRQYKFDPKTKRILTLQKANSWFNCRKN

[42] = target: Stromelysin-1 (Homo sapiens) (UniProt P08254); assay: Inhibition of human recombinant MMP3 catalytic domain assessed as hydrolysis of MOCAcPLGLA2pr(Dnp)AR-NH2 at 300 uM fluorescence by spectrofluorometry
Sequence of Stromelysin-1 (Homo sapiens) (P08254 100-477 limits assumed): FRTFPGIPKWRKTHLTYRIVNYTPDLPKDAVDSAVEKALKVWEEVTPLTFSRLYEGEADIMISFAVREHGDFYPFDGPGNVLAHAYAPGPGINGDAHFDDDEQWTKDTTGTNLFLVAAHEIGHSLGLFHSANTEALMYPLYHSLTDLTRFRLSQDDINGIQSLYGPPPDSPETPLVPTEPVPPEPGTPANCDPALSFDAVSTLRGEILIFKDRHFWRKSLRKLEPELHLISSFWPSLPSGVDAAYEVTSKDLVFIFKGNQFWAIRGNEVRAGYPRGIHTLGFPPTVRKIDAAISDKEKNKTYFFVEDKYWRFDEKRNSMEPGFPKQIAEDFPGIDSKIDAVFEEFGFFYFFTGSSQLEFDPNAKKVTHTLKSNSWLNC

## N=C(N)NCCC[C@H](N)C(=O)Oc1ccc(Oc2ccc(S(=O)(=O)CC3CS3)cc2)cc1 (stereo partly specified)
[1]
  solubility: > 10 mg/mL
[2]
  Stability: Unstable
[3]
  Stability: Unstable

## NCC(=O)Oc1ccc(Oc2ccc(S(=O)(=O)CC3CS3)cc2)cc1 (stereo unspecified)
[1]
  solubility: > 10 mg/mL
[2]
  Stability: Unstable
[3]
  Stability: Unstable

## N[C@@H](CCC(=O)O)C(=O)Oc1ccc(Oc2ccc(S(=O)(=O)CC3CS3)cc2)cc1 (stereo partly specified)
[1]
  solubility: > 10 mg/mL
[2]
  Stability: Unstable
[3]
  Stability: Unstable

## N=C(N)NCCC[C@H](NC(=O)[C@@H](N)CCCNC(=N)N)C(=O)Nc1ccc(Oc2ccc(S(=O)(=O)CC3CS3)cc2)cc1 (stereo partly specified)
[4]
  Stability: Stable
[1]
  solubility: > 10 mg/mL
[5]
  t1/2: 5.9 min
[6]
  t1/2: 11.8 min

## Nc1ccc(Oc2ccc(S(=O)(=O)CC3CS3)cc2)cc1 (stereo unspecified)
[7]
  Activity: Non-toxic
[8]
  Drug metabolism: Active
[9]
  t1/2: 27.3 min
[10]
  t1/2: > 60 min
[11]
  Activity: Non-toxic
[12]
  Drug metabolism: Active
[13]
  t1/2: 23.4 min
[14]
  Activity: Non-toxic
[15]
  CLint scaled: < 0.6 L/h/kg
[16]
  Activity: Non-toxic

## N=C(N)NCCC[C@H](NC(=O)[C@@H](N)CCCNC(=N)N)C(=O)Oc1ccc(Oc2ccc(S(=O)(=O)CC3CS3)cc2)cc1 (stereo partly specified)
[1]
  solubility: > 10 mg/mL
[2]
  Stability: Unstable
[3]
  Stability: Unstable

## NCCCC[C@H](N)C(=O)Oc1ccc(Oc2ccc(S(=O)(=O)CC3CS3)cc2)cc1 (stereo partly specified)
[1]
  solubility: > 10 mg/mL
[2]
  Stability: Unstable
[3]
  Stability: Unstable

## Cl.Nc1ccc(Oc2ccc(S(=O)(=O)CC3CS3)cc2)cc1 (stereo unspecified)
[17]
  AUClast: 7.71 µM·min
[18]
  Drug metabolism: 0.0273 µM
[19]
  AUC: BLD
[20]
  beta t1/2: 21 min
[21]
  Drug metabolism: 0.192 µM
[22]
  Drug metabolism: 0.00277 µM
[23]
  beta t1/2: BLD
[24]
  Vd: 0.532 L/kg
[25]
  CL: 5.25 L/h/kg
[26]
  Drug metabolism: 0.197 µM
[27]
  Drug metabolism: 0.0958 µM
[28]
  alphat1/2: 5.1 min
[29]
  Drug metabolism: Not Active
[30]
  Drug metabolism: Not Active
[31]
  AUC: 221 µM·min
[32]
  Drug metabolism: 0.15 µM

## N[C@@H](CCC(=O)O)C(=O)Nc1ccc(Oc2ccc(S(=O)(=O)CC3CS3)cc2)cc1 (stereo partly specified)
[4]
  Stability: Stable
[1]
  solubility: > 10 mg/mL
[5]
  t1/2: 27.9 min
[33]
  Drug metabolism: Active
[34]
  Ki: 4.3 µM
[6]
  t1/2: 32.8 min

## NCC(=O)Nc1ccc(Oc2ccc(S(=O)(=O)CC3CS3)cc2)cc1 (stereo unspecified)
[4]
  Stability: Stable
[1]
  solubility: > 10 mg/mL
[5]
  t1/2: 27.1 min
[33]
  Drug metabolism: Active
[6]
  t1/2: 32.4 min

## NCCCC[C@H](N)C(=O)Nc1ccc(Oc2ccc(S(=O)(=O)CC3CS3)cc2)cc1 (stereo partly specified)
[4]
  Stability: Stable
[1]
  solubility: > 10 mg/mL
[5]
  t1/2: 15.3 min
[33]
  Drug metabolism: Active
[6]
  t1/2: 25.1 min

## N=C(N)NCCC[C@H](N)C(=O)Nc1ccc(Oc2ccc(S(=O)(=O)CC3CS3)cc2)cc1 (stereo partly specified)
[4]
  Stability: Stable
[35]
  Drug metabolism: Active
[36]
  QH: 3.96 L/h/kg
[7]
  Activity: Non-toxic
[1]
  solubility: > 10 mg/mL
[37]
  QH: 5.16 L/h/kg
[9]
  t1/2: > 60 min
[10]
  t1/2: > 60 min
[5]
  t1/2: 25.4 min
[11]
  Activity: Non-toxic
[38]
  Drug metabolism: Active
[13]
  t1/2: 59.3 min
[14]
  Activity: Non-toxic
[16]
  Activity: Non-toxic
[33]; TDE = time-dependent effect
  Drug metabolism: tde
[39]
  QH: 1.26 L/h/kg
[40]
  Drug metabolism: Active
[6]
  t1/2: 29.5 min

## Nc1ccc(Oc2ccc(S(=O)(=O)CC3CS3)cc2)cc1O (stereo unspecified)
[41]
  inhibition: 11%
[42]
  inhibition: 54%
